Legend:
[1] = Release of parent dCDN from prodrug 9 initiated by DTT or GSH (HPLC); assay type: in vitro ADME
Method: To analyze the reduction dependency, we performed the in vitro cleavage test by incubating prodrug 9 with a reductive substance such as GSH or DTT and cell lysates at 37 °C and then determined the change with HPLC. […] As the reductive substance or cell lysates were added, the peak for prodrug 9 disappeared and the new peaks at 1.2 min appeared in 0.5 h and 2 h, respectively. The released parent dCDN was also confirmed with 3′,3′-c-di-dAMP through UPLC-MS (Figure S1).
Amounts of 10 mM DTT or GSH were added into prodrug 9 (100 μM) in an air-bath incubator at 37 °C for 0.5 h. Afterwards, 10 μL of each mixture was injected into HPLC for analysis. The HPLC methodology was the same as above.
Figure 3 Parent dCDNs release in GSH, DTT (a), and cell lysates (b). An amount of 100 μM prodrug 9 was added into the 10 mM GSH, 10 mM DTT, and cell lysates for various times (0.5 h and 2 h) at 37 °C and analyzed with HPLC (Agilent 1260, Santa Clara, CA, USA).

[2] = In vitro serum stability assay in 20% fetal bovine serum; assay type: in vitro ADME; conditions: bovine, 20% fetal bovine serum, pH 7.4, 20% FBS, 37 °C, read-out: T1/2 (half-life period) (converted)
Method: In vitro serum stability assay. Each compound (100 μM) was incubated at 37 °C in the reaction buffer including 20% fetal bovine serum (FBS, GIBCO, Thermo Fisher Scientific, Waltham, MA, USA), 10 mM PBS (pH 7.4), and 1 mM MgCl2. At various times, aliquots of the reaction mixture were collected and stopped by adding 50 μL MeCN and diluted with 50 μL water. The reaction mixture was then centrifuged at 10,000 rpm for 5 min, leaving 100 μL supernatant for the HPLC assay. An amount of 10 μL of each aliquot was injected directly into HPLC (Agilent 1260 Infinity HPLC equipped with a UV detector; column Agilent ZORABX SB-C18 5 μm [4.6 × 150 mm; detection at 254 nm; column temperature 25 °C] for analysis. Amounts of 10 mM TEAA buffer (solvent A) and MeCN (solvent B) were used as the mobile phase with a flow rate of 1 mL/min. The gradient was set as the following: 0–2 min: 98% A/2% B; 2–6 min: 98% A/2% B to 100% B; 6–10 min: 100% B; 10–13 min: 100% B to 98% A/2% B; 13–15 min: 98% A/2% B. The % remaining of the test compounds after incubation in the serum was then calculated.
Figure 4 Parent dCDN of DTE-dCDN prodrug 9 retained a high serum stability. The serum stability analysis of (a) prodrug 9, (b) 3′,3′-c-di-dAMP, (c) 2′,3′-cGAMP and (d) ADU-S100 were determined in 20% FBS. Each compound (100 μM) was incubated in 20% FBS at 37 °C. At various times (0, 2, 4, 8, 12, 24, 48, 72 h), aliquots of the reaction mixture were analyzed with HPLC at 254 nm. The % remaining of test compounds after incubation in serum was calculated.

THP-1 cells = assay: RT-qPCR of cytokine mRNA levels in THP-1 cells; assay type: cell-based; conditions: 4 h
Method: Real-time quantitative PCR (RT-qPCR). The mRNA expression levels of diverse cytokines were measured using quantitative RT-PCR (RT-qPCR) assays. THP-1 cells or CT26 cells were incubated with the compounds for 4 h, subsequently harvested for RNA isolation according to the manufacturer’s instructions of RNApure Tissue&Cell Kit (DNase I) (CWBIO, Cambridge, MA, USA catalogue no. CW0560S). Next, 1 μg RNA was reversely transcribed to cDNA by TransScript All-in-One First-Strand cDNA Synthesis SuperMix for qPCR (One-Step gDNA Removal) (TransGen, Beijing, China). To examine the mRNA levels, real-time PCR was performed in a CFX96 Real-Time PCR system (Bio-RAD, Hercules, CA, USA) using PerfectStart Green qPCR Super Mix (TransGen) and primers (Sangon Biotech, Shanghai, China). The expression level was calculated according to the formula (2^−∆∆Ct) using the GAPDH or β-actin as the internal reference gene and the relative gene expression fold was normalized to the DMSO-treated cells. The THP-1 and CT26 cell lines were obtained from American Type Culture Collection (ATCC, Manassas, VA, USA).
Figure 7 Prodrug 9 improved the production of the type I interferons and proinflammatory cytokines in THP-1 cells. The mRNA expression levels of IFN-β (a), CXCL10 (b), IL-6 (c), and TNF-α (d) were assessed via real-time quantitative PCR (qPCR) under the treatment of prodrug 9 (10 μM), 3′,3′-c-di-dAMP (100 μM), 2′,3′-cGAMP (100 μM), and ADU-S100 (10 μM) for 4 h.

HEK293T cells = assay: CCK8 cell viability, HEK293T cells; assay type: cell-based; conditions: 10 μM, 24 h
Method: Cell viability of THP-1 and HEK293T cells. A total of 5 × 10^3 HEK293T cells or THP-1 cells were seeded in 96-well plates. […] Cell counting kit-8 (CCK8) (US EVERBRIGHT, Newport Beach, CA, USA, c6005) was then used to quantitatively assess the cell viability through the OD value at 450 nm. The HEK293T cell line was obtained from American Type Culture Collection (ATCC).
Figure 8 Cell viability of THP-1 and HEK293T cells stimulated by prodrug 9 and 2′,3′-cGAMP. (a) A total of 5 × 10^3 THP-1 cells or (b) HEK293T cells were seeded in 96-well plates. Cells were stimulated with prodrug 9 (10 μM), 3′,3′-c-di-dAMP (100 μM), and 2′,3′-cGAMP (100 μM) for 24 h. Then, cell counting kit-8 (CCK8) (US EVERBRIGHT, c6005) was used to quantitatively assess cell viability through the OD value at 450 nm. Data are presented as mean ± SD, n = 3.

[3] = THP-1, prodrug 9 10 μM vs 2′,3′-cGAMP 100 μM
[4] = THP-1, prodrug 9 10 μM vs 3′,3′-c-di-dAMP 100 μM
[5] = THP-1, prodrug 9 10 μM vs ADU-S100 10 μM

With `Nc1ncnc2c1ncn2C1CC2OP(=O)(OCCSSc3ccccn3)OCC3OC(n4cnc5c(N)ncnc54)CC3OP(=O)(OCCSSc3ccccn3)OCC2O1` (stereo not shown) [prodrug 9] the “time at which prodrug peak disappeared and parent dCDN peak appeared” value ([1]; 100 μM prodrug, 10 mM GSH or DTT, 37 °C) was 0.5 h, the “time to decompose and release the parent dCDN” value ([1]; reductive substance GSH or DTT) was 30 min and the half-life at 100 μM [2] was 28 h. For the same molecule, the “CXCL10 mRNA expression, fold compared to 2′,3′-cGAMP” value (THP-1 cells; [3]) was about 17 fold, the “IFN-β mRNA expression, fold compared to 2′,3′-cGAMP” value (THP-1 cells; [3]) was “approximately 40 fold” and the “IL-6 mRNA expression, fold compared to 2′,3′-cGAMP” value (THP-1 cells; [3]) was about 1.2 fold. The “TNF-α mRNA expression, fold compared to 2′,3′-cGAMP” value (THP-1 cells; [3]) was about 46 fold, the “CXCL10 mRNA expression, fold compared to 3′,3′-c-di-dAMP” value (THP-1 cells; [4]) was about 26 fold and the “IFN-β mRNA expression, fold compared to 3′,3′-c-di-dAMP” value (THP-1 cells; [4]) was “approximately 43 fold”. For the same molecule, the “IL-6 mRNA expression, fold compared to 3′,3′-c-di-dAMP” value (THP-1 cells; [4]) was about 1.4 fold, the “TNF-α mRNA expression, fold compared to 3′,3′-c-di-dAMP” value (THP-1 cells; [4]) was about 12 fold and the “CXCL10 mRNA expression, fold higher than ADU-S100” value (THP-1 cells; [5]) was 14 fold. The “IFN-β mRNA expression, fold higher than ADU-S100” value (THP-1 cells; [5]) was 14 fold, the “IL-6 mRNA expression, fold higher than ADU-S100” value (THP-1 cells; [5]) was 1.9 fold and the “TNF-α mRNA expression, fold higher than ADU-S100” value (THP-1 cells; [5]) was 15 fold. The “cell viability (CCK8), HEK293T cells” value (HEK293T cells) was “no significant influence on the growth”.
